Consider five compounds from patent US20090221619A1, “NOVEL MATERIALS AND METHODS FOR THE PRODUCTION THEREOF” (SYNGENTA CROP PROTECTION, INC., priority 2005, published 2009).

Each structure is given as a SMILES string. ≈ marks a conversion by molar mass, not a printed value. Read-outs that look alike come from different tables or passages of the source.

Holding throughout (format): cell-based
Test [1] has as its system Aureobasidium pullulans. Description: MIC value generation: liquid culture assay on 24 well plates, solo ai. Particulars: A. pullulans; for EC95: concentration for 95% activity estimated from graph; for MIC: Aureobasidium pullulans, rates 0-100 mg ai/l, mean values of n = 5, read-out: MIC Minimal inhibition concentration. The method, then:
(§1) Stachybotrys chartarum, and Aureobasidium pullulans were separately cultivated on PDA media to […] sporulation. Spore suspensions were produced for each fungi.
(§2) Test method used: liquid culture assay on 24 well plates.
(§3) For solo (i.e. single) ai testing the formulated fungicide (100 ul) was filled into the 24 well plates (8 different rates: 100-0.05 mg ai/l final volume as described above) and 100 ul distilled water was added. Afterwards 800 ul of 0.3% PDA media was added to the plate. The spore suspension of the specific fungi was added to this media in advance containing approx. 100.000 spores/ml. The 24 well plates were sealed and incubated at 24° C.
(§4) Dependent on the growth prosperities of each organisms, the evaluation was done after 3 to 6 days, when the surface of the check well was covered with mycelium. The evaluation was performed by assessing the growth of the fungi related to the check growth. The results are expressed as % activity relative to the check (values of 0-100% growth). Afterwards the results were converted in % growth inhibition. EC95 values and also MIC (minimal inhibition concentration) values were derived for each compound.
(§5) For each solo compound a graph was drawn of percentage inhibition against the concentration of the fungicide. From this graph the concentration of the fungicide required to achieve 95% activity was estimated. Also the concentration that gave the minimum inhibition concentration was derived as MIC value.

The test system of test [2] is Stachybotrys chartarum. Described as above. Particulars: S. chartarum; for EC95: concentration for 95% activity estimated from graph; for MIC: Stachybotrys chartarum, rates 0-100 mg ai/l, mean values of n = 5, read-out: MIC Minimal inhibition concentration. The method, then: as §1, §2, §3, §4, §5
The subject of test [3] is Aureobasidium pullulans. The test can be described thus: Synergy testing of 2 way mixtures, liquid culture on 24 well plates (Colby). Particulars: A. pullulans; for inhibition at 50 µg/mL: CDL 50 mg ai/l; for inhibition at 100 µg/mL: CDL 100 mg ai/l. The method, then: (§6) For synergism testing of the 2 way mixtures 100 ul of each fungicide were filled into the 24 well plates (8 different rates) and 800 ul of 0.3% PDA media containing the spore suspension was added (see above). Different ratios of the 2 fungicide rates were tested at the same time.
(§7) Stachybotrys chartarum and Aureobasidium pullulans were separately cultivated on PDA media to […] sporulation. Spore suspensions were produced for each fungi.
(§8) For the mixtures of different fungicides the synergism was calculated based on the Colby equation, which is described below: […]
(§9) The fungicidal action to be expected, We, for a given combination of two fungicides can be calculated as follows (see COLBY, S. R. “Calculating synergistic and antagonistic response of herbicide combinations”. Weeds 15, pages 20-22; 1967):
(§10) wherein: X=% activity in the case of treatment with the compound of formula I at rate x, in comparison with untreated control (=0%). Y=% activity in the case of treatment with a compound of formula II at rate y, in comparison with untreated control. We=expected activity (% activity in comparison with untreated control) after treatment with the compound of formula I and a compound of formula II at a rate of x+y kg of active ingredient.
(§11) If the activity actually observed is greater than the expected value We, there is a synergistic effect.
(§12) All rates below are expressed as mg ai/l (i.e. ppm).

Test [4] relates to Stachybotrys chartarum. The test is described as above. To be noted: S. chartarum. The method, then:
as §6, §7, §8, §9, §10, §11, §12

[5] abbreviates: CDL 12.5 mg ai/l, PPZ table, read-out: inh % (CDL alone).
Setting [6] is: CCZ table, read-out: inh % (CDL alone).
[7] abbreviates: DFZ table, read-out: inh % (CDL alone).
[8] abbreviates: PPZ table, read-out: inh % (CDL alone).
The mark [9] stands for this setting: TBZ table, read-out: inh % (CDL alone).
[10] abbreviates: PPZ 3.1 mg ai/l, read-out: inh % (PPZ alone).

As for `CC(C1CC1)C(O)(Cn1cncn1)c1ccc(Cl)cc1` (stereo not drawn) [CCZ, Cyproconazole], the EC95 in test [1] was 6.5 mg ai/l; in test [2], greater than 100 mg ai/l. For the same compound, the MIC in test [1] was 12.5 µg/mL (≈ 42.8 µM); in test [2] it was greater than 100 µg/mL. For the same compound, the inhibition at 1.6 µg/mL in test [3] (CCZ 1.6 mg ai/l, read-out: inh % (CCZ alone)) worked out at 70%. The inhibition at 3.1 µg/mL in test [3] (CCZ 3.1 mg ai/l, read-out: inh % (CCZ alone)) was determined as 90%. Besides, the inhibition at 100 µg/mL in test [4] (CCZ 100 mg ai/l, read-out: inh % (CCZ alone)) turned out to be 50%.
For `Cc1cc(C2CC2)nc(Nc2ccccc2)n1` [CDL, Cyprodinil], the results for the EC95 in test [1] and in test [2] were greater than 100 mg ai/l and 46 mg ai/l, respectively. The MIC was greater than 100 µg/mL in test [1] and 50 µg/mL (≈ 222 µM) in test [2]. Also, the inhibition at 0.8 µg/mL in test [3] (CDL 0.8 mg ai/l, DFZ table, read-out: inh % (CDL alone)) came out at 0%. Besides, the inhibition at 1.6 µg/mL in test [3] (CDL 1.6 mg ai/l, CCZ table, read-out: inh % (CDL alone)) was 10%; in test [3] (CDL 1.6 mg ai/l, DFZ table, read-out: inh % (CDL alone)), 10%; in test [3] (CDL 1.6 mg ai/l, PPZ table, read-out: inh % (CDL alone)), 10%; in test [3] (CDL 1.6 mg ai/l, TBZ table, read-out: inh % (CDL alone)) it was 10%. Further, the inhibition at 3.1 µg/mL came to 10% in test [3] (CDL 3.1 mg ai/l, DFZ table, read-out: inh % (CDL alone)); 10% in test [3] (CDL 3.1 mg ai/l, PPZ table, read-out: inh % (CDL alone)); 10% in test [3] (CDL 3.1 mg ai/l, TBZ table, read-out: inh % (CDL alone)); 0% in test [4] (CDL 3.1 mg ai/l, CCZ table, read-out: inh % (CDL alone)). Also, the inhibition at 12.5 µg/mL stood at 30% in test [3] (CDL 12.5 mg ai/l, CCZ table, read-out: inh % (CDL alone)); 30% in test [3] (CDL 12.5 mg ai/l, DFZ table, read-out: inh % (CDL alone)); 30% in test [3] (setting [5]); 30% in test [3] (CDL 12.5 mg ai/l, TBZ table, read-out: inh % (CDL alone)); 70% in test [4] (setting [5]). Further, the inhibition at 50 µg/mL in test [3] (setting [6]) was 30%; in test [3] (setting [7]) it was 30%; in test [3] (setting [8]), 30%; in test [3] (setting [9]), 50%. In addition, the inhibition at 100 µg/mL in test [3] (setting [6]) was 30%; in test [3] (setting [7]), 30%; in test [3] (setting [8]) it was 30%; in test [3] (setting [9]), 50%.
As to `CC1COC(Cn2cncn2)(c2ccc(Oc3ccc(Cl)cc3)cc2Cl)O1` (stereo not drawn) [DFZ, Difenoconazole], in test [1], the EC95 is given as 8 mg ai/l and the MIC came out at 12.5 µg/mL (≈ 30.8 µM). Moreover, in test [2], the EC95 is reported as 2.7 mg ai/l and the MIC stood at 3.1 µg/mL (≈ 7.63 µM). Further, the inhibition at 0.8 µg/mL in test [3] (DFZ 0.8 mg ai/l, read-out: inh % (DFZ alone)) amounted to 90%. In addition, the inhibition at 1.6 µg/mL in test [3] (DFZ 1.6 mg ai/l, read-out: inh % (DFZ alone)) was found to be 90%. Further, the inhibition at 3.1 µg/mL in test [3] (DFZ 3.1 mg ai/l, read-out: inh % (DFZ alone)) turned out to be 70%.
On to `CCCC1COC(Cn2cncn2)(c2ccc(Cl)cc2Cl)O1` (stereo not drawn) [PPZ, Propiconazole], for which the EC95 is recorded as 36 mg ai/l in test [1] and greater than 100 mg ai/l in test [2]. The MIC in test [1] was 50 µg/mL (≈ 146 µM); in test [2] it was greater than 100 µg/mL. Besides, the inhibition at 3.1 µg/mL worked out at 70% in test [3] (setting [10]) and 10% in test [4] (setting [10]). Also, the inhibition at 12.5 µg/mL in test [3] (PPZ 12.5 mg ai/l, read-out: inh % (PPZ alone)) was 70%. The inhibition at 0.2 µg/mL in test [4] (PPZ 0.2 mg ai/l, read-out: inh % (PPZ alone)) came to 0%. In addition, the inhibition at 1.6 µg/mL in test [4] (PPZ 1.6 mg ai/l, read-out: inh % (PPZ alone)) was 0%.
With `c1ccc2[nH]c(-c3cscn3)nc2c1` [TBZ, Thiabendazole], in test [1], the EC95 is on record as 15 mg ai/l and the MIC was found to be 50 µg/mL (≈ 248 µM). Moreover, in test [2], the EC95 is 46 mg ai/l and the MIC stood at 50 µg/mL (≈ 248 µM). Besides, in test [3] (TBZ 12.5 mg ai/l, read-out: inh % (TBZ alone)), the inhibition at 12.5 µg/mL is 90%.
